# Results: US20160030364A1, “Therapeutic Compositions and Uses Thereof” (MANUKA HEALTH NEW ZEALAND LIMITED, priority 2013, published 2016)
# Tested on: human colorectal adenocarcinoma cells (DLD-1)
# Experiment: MTT proliferation assay, DLD-1 (Examples 1-2)
# Assay type: cell-based
# Description: (§1) Test samples shown below in Table 2 were assessed for their ability to modulate the viability and proliferation of human colorectal adenocarcinoma cells (DLD-1) as assessed by the MTT assay. A positive control, 5-fluorouracil (5-FU) was included in addition to an unsupplemented cell control (negative control) in the study. The test samples were obtained by fractionation of propolis tincture.
# as §1, with “study.” for “study. The test samples were obtained by fractionation of propolis tincture.”
# Human colorectal adenocarcinoma epithelial cell lines were revived from cryostorage and cultured in the presence of the test and reference samples. The culture conditions for the cells were those described by the supplier of the cells (ATCC). An MTT assay was then performed on the cultures to determine the effect of the samples on the cell proliferation.
# Working solutions were prepared by dissolving the test fractions in 15% ethanol (ETOH)/HBSS to a concentration of 2 mg/mL solids.
# • 1. Human colorectal adenocarcinoma cells (ATCC CCI-221, DLD-1). • 2. Penicillin-streptomycin solution: 10000 units/mL penicillin, 10 mg/mL streptomycin in 0.9% NaCl (Sigma Cat #P-0781). Stored at −20° C. • 3. DMEM culture medium (Invitrogen Cat #12100-046) Stored at −20° C. • 4. Trypsin-EDTA solution: 0.25% Trypsin/EDTA, Invitrogen Cat#15400054 (×10 in stock). • 5. Phosphate buffered saline (PBS) (Prepared by TBL). • 6. Hanks Balanced Salt Solution (HBSS). (GIBCO Cat No. 14185-052). Stored at 4° C. • 7. Foetal Bovine Serum (GIBCO Cat #10091-148). Stored at −20° C. • 8. MTT Reagent: 100 mg/vial, (SIGMA Cat. No. M-2128) dissolved in PBS at 10 mg/mL and stored at −20° C. 5 mg/mL MTT solution were prepared in PBS and stored at 4° C. as working solution. • 9. MTT lysis buffer: 10% sodium dodecyl sulphate (SDS)/45% Dimethyl Formamide (20 g SDS was dissolved in 100 mL of double-distilled water (DDW), and 90 mL of Dimethyl Formamide added to the SDS solution). The pH was adjusted to 4.7 by glacial acetic acid, and DDW added up to a final volume of 200 mL. • 10. 5-Fluorouracil (5-FU), (Sigma Cat. No. F-6627). Two working solutions were prepared at 150 ng/mL and 75 ng/mL, dissolved in 15% Ethanol/HBSS. Final concentrations were 7.50 ng/mL and 3.75 ng/mL.
# The medium for the propagation of the colorectal adenocarcinoma (DLD-1) cells was DMEM, supplemented with penicillin-streptomycin solution (10 mL per litre). FBS was added just before use to give 10% w/v.
# • 1. The human colorectal adenocarcinoma cells (DLD-1) obtained from the American Type Culture Collection USA were revived from cryostorage. • 2. Following initial propagation using the media described above (see Medium Preparation), the culture was subcultured using the trypsin-EDTA as follows. The media was removed and 5 mL of the trypsin-EDTA solution added and incubated at 37° C. for 5 min or until all the cells had detached. The trypsin was neutralised by adding an equal volume of DMEM medium and the culture centrifuged at 300 g (1200 rpm) for 5 min at 4° C. • 3. The supernatant was decanted and the cell pellets resuspended in medium DMEM, FBS (10%), penicillin (100 units/mL), streptomycin (100 μg/mL). The cells were cultured at 37° C. in 5% CO2/95% air. • 4. After reaching confluence, the cells were detached using trypsin-EDTA and centrifuged as described in 2 above. • 5. The supernatants were discarded and the cells resuspended in DMEM and supplements as described in 3 above at 1.0×10^4 cells per mL. • 6. Into each well of three 96 well plates, 180 μl of the cells (1,800 cells/well) or medium was added. The plates were incubated at 5% CO2/95% air at 37° C. for 48 h which was sufficient to allow the cells to adhere. • 7. To each well, 20 μl of each, of the test samples or positive control was added. […]
# [1] = Example 2, DLD-1, sample 200 μg/mL, 24 hours incubation
smiles,measurement,setting,value
"O=C1C[C@@H](c2ccccc2)Oc2cc(O)cc(O)c21 [Pinocembrin, reference compound]",Mean OD (570 nm),[1],0.0196
same,inhibition at 200 µg/mL,"Homo sapiens, Example 2, DLD-1, sample 200 μg/mL, 24 hours incubation",94%
"O=c1[nH]cc(F)c(=O)[nH]1 [Sample 5-FU, 5-fluorouracil, reference compound]",Mean OD (570 nm),"Example 1, DLD-1, 5-FU 7.50 ng/ml",0.657
same,inhibition at 0.0075 µg/mL,"Homo sapiens, Example 1, DLD-1, 5-FU 7.50 ng/ml",6.69%
"COc1cc(O)c2c(=O)cc(-c3ccccc3)oc2c1 [Tectochrysin, tectochrysin]",% inhibition,[1],29.45%
same,Mean OD (570 nm),[1],0.2285
"O=C(O)/C=C/c1ccc(O)cc1 [p-coumaric acid, para-coumaric acid, reference compound]",activity against DLD-1,"isolated from NZ propolis, data not shown in Example 2",inactive
